According to ChEMBL document CHEMBL1201862, “PubChem BioAssay data set” (2004):
Active and inactive are the calls of the source.

How the values were obtained:
Assay type in all cases: functional
[1] = target: Melanin-concentrating hormone receptor 1 (Homo sapiens, UniProt Q99705); assay: Late-stage fluorescence-based counterscreen for antagonists of the G-protein coupled receptor 7 (GPR7): cell-based dose response assay to identify antagonists of the melanin-concentrating hormone receptor 1 (MCHR1) Set 6.
Chain of Melanin-concentrating hormone receptor 1 (Q99705 whole entry): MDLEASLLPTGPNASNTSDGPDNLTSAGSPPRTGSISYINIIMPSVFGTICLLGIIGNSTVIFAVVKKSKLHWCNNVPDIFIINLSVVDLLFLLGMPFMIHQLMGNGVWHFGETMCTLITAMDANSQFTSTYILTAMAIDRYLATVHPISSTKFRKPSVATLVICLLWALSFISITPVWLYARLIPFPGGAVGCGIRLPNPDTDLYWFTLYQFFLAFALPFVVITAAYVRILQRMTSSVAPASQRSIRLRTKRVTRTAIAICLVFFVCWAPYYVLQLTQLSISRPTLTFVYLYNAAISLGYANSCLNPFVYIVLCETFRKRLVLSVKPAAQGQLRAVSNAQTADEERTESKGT

[2] = target: Neuropeptides B/W receptor type 1 (Homo sapiens, UniProt P48145); assay: human NPBW1 receptor blockade, IC50 – cell-based, fluorescence, dose response, set 6, late-stage follow-up (AID 588583)
Chain of Neuropeptides B/W receptor type 1 (P48145 whole entry): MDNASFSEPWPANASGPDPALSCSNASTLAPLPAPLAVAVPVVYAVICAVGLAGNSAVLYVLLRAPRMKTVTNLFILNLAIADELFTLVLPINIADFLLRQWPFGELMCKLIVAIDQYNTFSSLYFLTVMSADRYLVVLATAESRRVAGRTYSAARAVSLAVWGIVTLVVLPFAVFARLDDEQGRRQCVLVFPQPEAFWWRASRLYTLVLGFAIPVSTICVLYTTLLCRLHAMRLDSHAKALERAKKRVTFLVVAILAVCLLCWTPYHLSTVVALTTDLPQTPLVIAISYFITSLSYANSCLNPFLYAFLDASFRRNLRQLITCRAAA

[3] = THP-1 cell cytotoxicity, cytotoxicity control, set 4 (AID 504911); settings: Mycobacterium tuberculosis
[4] = Vero cell cytotoxicity, dose response, cytotoxicity control for M. tuberculosis growth inhibitor project, Vero cells, purified and synthesized compounds, set 5 (AID 504909); settings: Mycobacterium tuberculosis
[5] = THP-1 cell cytotoxicity, dose response, cytotoxicity control, set 3 (AID 504852); settings: Mycobacterium tuberculosis
[6] = Vero cell cytotoxicity, dose response, cytotoxicity control for M. tuberculosis growth inhibitor project, Vero cells, purified and synthesized compounds, set 4 (AID 504854); settings: Mycobacterium tuberculosis
[7] = target: Glycogen synthase kinase-3 beta (Homo sapiens, UniProt P49841); assay: inhibition of human GSK3B activity – biochemical, microfluidics, dry powder samples, set 2, dose response (AID 623989)
Chain of Glycogen synthase kinase-3 beta (P49841 whole entry): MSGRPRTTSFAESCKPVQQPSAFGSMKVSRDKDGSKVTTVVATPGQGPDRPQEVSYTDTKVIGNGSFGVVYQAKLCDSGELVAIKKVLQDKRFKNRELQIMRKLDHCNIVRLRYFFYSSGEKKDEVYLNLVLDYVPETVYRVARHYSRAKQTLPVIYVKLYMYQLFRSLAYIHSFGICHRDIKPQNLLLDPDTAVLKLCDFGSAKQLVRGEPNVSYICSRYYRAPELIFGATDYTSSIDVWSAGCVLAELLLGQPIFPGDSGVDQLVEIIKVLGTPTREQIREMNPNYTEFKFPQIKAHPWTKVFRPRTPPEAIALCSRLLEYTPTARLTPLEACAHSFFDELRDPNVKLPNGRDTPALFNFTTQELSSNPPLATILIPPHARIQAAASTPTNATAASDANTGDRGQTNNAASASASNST

For N#CC(c1cccc(Cl)c1)c1c(Cl)cnn(Cc2cccc3ccccc23)c1=O (configuration not stated), the IC50 [1] was 0.26 µM (active) and the IC50 [2] was 0.26 µM (active).
In the case of COc1cccc(NC(=O)CSc2nc3ccccc3c(=O)[nH]2)c1, the CC50 [3] is reported as > 100 µM (active), the CC50 [4] is reported as > 100 µM (active) and the CC50 [5] is reported as > 100 µM (active). The CC50 [6] was > 100 µM (active).
In the case of COc1ccc(/C=C2\SC(NCc3ccccc3)=NC2=O)cc1, the AC50 [7] is reported as 6.02 µM (active).
